Measurements taken from US20240101540A1, “TARGETED PROTEIN DEGRADATION OF PARP14 FOR USE IN THERAPY” (Ribon Therapeutics, Inc., priority 2022, published 2024).
Counter-ions that a name gives are not always drawn. Like-named read-outs stand apart in the source and are kept apart here.

Target: T1, catalytic domain of human PARP14 (residues 1611 to 1801) with NanoLuc tag (Homo sapiens, UniProt Q460N5)
T1 construct: expressed in transfected cells; host or cells: HEK-293T cells (ATCC), pcDNA3.1(-) vector
T1 sequence (Q460N5 1611-1801): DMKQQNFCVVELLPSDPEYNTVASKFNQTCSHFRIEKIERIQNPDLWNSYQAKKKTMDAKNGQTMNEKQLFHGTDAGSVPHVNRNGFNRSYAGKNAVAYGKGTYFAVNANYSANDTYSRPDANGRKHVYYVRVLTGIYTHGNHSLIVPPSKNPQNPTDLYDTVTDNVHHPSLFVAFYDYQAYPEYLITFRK
Experiment: NanoLuc assay for the degradation of PARP14 (NanoLuc-tagged PARP14 overexpressed in HEK-293T cells, 2 hours)
Format: cell-based
Conditions: Assay A (Example A): NanoLuc-tagged PARP14 degradation in HEK-293T cells

| SMILES | DC50 (read-out: DC50) [nM] | DC50 [nM] |
| --- | --- | --- |
| O=C1CCC(Nc2ccc(OC3CC(CN4CCC(COc5cc(F)c6c(=O)[nH]c(CSC7CCOCC7)nc6c5)CC4)C3)cc2)C(=O)N1 (stereo not drawn) [Example 47, 3-({4-[3-({4-[({5-fluoro-2-[(oxan-4-ylsulfanyl)methyl]-4-oxo-3H-quinazolin-7-yl}oxy)methyl]piperidin-1-yl}methyl)cyclobutoxy]phenyl}amino)piperidine-2,6-dione] | < 100 |  |
| O=C1CCC(Nc2ccc(N3CCN(CCN4CCC(COc5cc(F)c6c(=O)[nH]c(CSC7CCOCC7)nc6c5)CC4)CC3)cc2)C(=O)N1 (stereo not drawn) [Example 48, 3-((4-(4-(2-(4-(((5-fluoro-4-oxo-2-(((tetrahydro-2H-pyran-4-yl)thio)methyl)-3,4-dihydroquinazolin-7-yl)oxy)methyl)piperidin-1-yl)ethyl)piperazin-1-yl)phenyl)amino)piperidine-2,6-dione] |  | < 100 |
| O=C1CCC(Nc2ccc(C3CCN(CCN4CCC(COc5cc(F)c6c(=O)[nH]c(CSC7CCOCC7)nc6c5)CC4)CC3)cc2)C(=O)N1 (stereo not drawn) [Example 49, 3-((4-(1-(2-(4-(((5-fluoro-4-oxo-2-(((tetrahydro-2H-pyran-4-yl)thio)methyl)-3,4-dihydroquinazolin-7-yl)oxy)methyl)piperidin-1-yl)ethyl)piperidin-4-yl)phenyl)amino)piperidine-2,6-dione] | < 100 |  |
| O=C1CCC(Nc2ccc(N3CCN(CCN4CCC(COc5cc(F)c6c(=O)[nH]c(CSC7CCOCC7)nc6c5)CC4)CC3)c(C(F)(F)F)c2)C(=O)N1 (stereo not drawn) [Example 50, 3-((4-(4-(2-(4-(((5-fluoro-4-oxo-2-(((tetrahydro-2H-pyran-4-yl)thio)methyl)-3,4-dihydroquinazolin-7-yl)oxy)methyl)piperidin-1-yl)ethyl)piperazin-1-yl)-3-(trifluoromethyl)phenyl)amino)piperidine-2,6-dione] | < 100 |  |
| O=C1CCC(Nc2ccc(N3CC(N4CCC(COc5cc(F)c6c(=O)[nH]c(CSC7CCOCC7)nc6c5)CC4)C3)cc2)C(=O)N1 (stereo not drawn) [Example 51, 3-((4-(3-(4-(((5-fluoro-4-oxo-2-(((tetrahydro-2H-pyran-4-yl)thio)methyl)-3,4-dihydroquinazolin-7-yl)oxy)methyl)piperidin-1-yl)azetidin-1-yl)phenyl)amino)piperidine-2,6-dione] | < 100 |  |
| O=C1CCC(Nc2ccc(N3CC(N4CCC(COc5cc(F)c6c(=O)[nH]c(CSC7CCOCC7)nc6c5)C(F)(F)C4)C3)cc2)C(=O)N1 (stereo not drawn) [Example 52, 3-((4-(3-(3,3-difluoro-4-(((5-fluoro-4-oxo-2-(((tetrahydro-2H-pyran-4-yl)thio)methyl)-3,4-dihydroquinazolin-7-yl)oxy)methyl)piperidin-1-yl)azetidin-1-yl)phenyl)amino)piperidine-2,6-dione formate salt] | < 100 |  |
| O=C1CCC(Nc2ccc(N3CC(CN4CCC(COc5cc(F)c6c(=O)[nH]c(CSC7CCOCC7)nc6c5)CC4)C3)cc2)C(=O)N1 (stereo not drawn) [Example 53, 3-((4-(3-((4-(((5-fluoro-4-oxo-2-(((tetrahydro-2H-pyran-4-yl)thio)methyl)-3,4-dihydroquinazolin-7-yl)oxy)methyl)piperidin-1-yl)methyl)azetidin-1-yl)phenyl)amino)piperidine-2,6-dione] | < 100 |  |
| O=C1CCN(c2cccc(N3CC(CN4CCC(COc5cc(F)c6c(=O)[nH]c(CSC7CCOCC7)nc6c5)CC4)C3)c2)C(=O)N1 [Example 54, 1-(3-(3-((4-(((5-fluoro-4-oxo-2-(((tetrahydro-2H-pyran-4-yl)thio)methyl)-3,4-dihydroquinazolin-7-yl)oxy)methyl)piperidin-1-yl)methyl)azetidin-1-yl)phenyl)dihydropyrimidine-2,4(1H,3H)-dione formate salt] | < 100 |  |
| O=C1CCC(Nc2ccc(OCCN3CCC(COc4cc(F)c5c(=O)[nH]c(CSC6CCOCC6)nc5c4)CC3)cc2)C(=O)N1 (stereo not drawn) [Example 58, 3-((4-(2-(4-(((5-fluoro-4-oxo-2-(((tetrahydro-2H-pyran-4-yl)thio)methyl)-3,4-dihydroquinazolin-7-yl)oxy)methyl)piperidin-1-yl)ethoxy)phenyl)amino)piperidine-2,6-dione] | < 100 |  |
